The record followed here is US5587402A, “Regression of mammalian leukemia cell tumors” (priority 1995, dated 1996).

The structures appear in SMILES notation.

Data set [1] has as its system bcr/abl-induced leukemia in mice. Description: bcr/abl-induced leukemia in mice fed perillyl alcohol diet. In kind it is in vivo, mouse. The conditions noted are these: diet containing 2% perillyl alcohol. From the text:
Experiments were done in which the non-malignant mouse bone marrow cell line, FDC-P1, was transformed with a retrovirus engineered to express the p210 bcr/abl oncogene. As described above, the bcr/abl oncogene plays a major role in the development of human Philadelphia chromosome (Ph) positive leukemias. Therefore, this mouse system represents a model of Ph^+ human leukemia. Injection of syngeneic animals with the bcr/abl transformed FDC-P1 cells induces lethal hematopoietic malignancy in which all animals had died within 30 days post-injection (absent perillyl alcohol).
Animals were fed either a control diet or a diet containing 2% perillyl alcohol and were challenged with either 3×10^5 or 3×10^6 bcr/abl-transformed cells. All animals on the control diet died by day 26.

Data set [2] deals with isoprenylation of 21-26 kDa proteins in M600B cells. The data set is described as follows: Protein isoprenylation in M600B human mammary epithelial cells. Format: cell-based.
In data set [3] the test system is nontransformed FDC-P1 cells. Description: Proliferation of nontransformed FDC-P1 myeloid cells. Format: cell-based, murine. The conditions noted are these: Mus musculus, FDC-P1, read-out: inhibition of cell growth. As to the method: (The p210 bcr/abl oncogene is carried on a helper-free retrovirus referred to as "p210.") FDC-P1 myeloid cells are an immature cell line from myeloid lineage derived from mouse bone marrow (Dexter, TM, J. Exp. Med. 152: 1036-1047, 1980).

Data set [4] has as its system isoprenylation of 21-26 kDa proteins in NIH3T3 (mouse embryo) cells. Description: Protein isoprenylation in NIH3T3 cells (21-26 kDa bands, SDS-PAGE fluorography). In kind it is cell-based. The arrangement: Relative activity (inhibition of isoprenylation of 21-26 kDa proteins): key to the marks not given beside the values. The note with it: Experiment 2; 1 mM. As to the method: NIH3T3 (mouse embryo) cells were obtained from the American Type Culture Collection and were grown in Dulbecco's modified Eagle's medium supplemented with 10% calf serum. […] Because they carried a radioactive label, isoprenylated proteins were visualized by fluorography. As a control, cells were incubated without the monoterpene. […] Whole cell extracts were analyzed by SDS-PAGE on 16-cm×18-cm×0.75-mm gels by the method of Laemmli (supra). […] Gels were stained with Coomassie Brilliant Blue, equilibrated for 20 minutes in Amplify (Amersham Corp.) fluorographic reagent, dried under vacuum at 65° C., and exposed to […] Some fluorograms were analyzed further by densitometry. […] Protein content was measured by the method of Lowry, et al. […] FIG. 1 depicts the structures of these monoterpenes.

Data set [5] in a line: Pharmacologic analysis of serum concentration in rats. In kind it is in vivo. The note with it: rats fed 2% perillyl alcohol. The source says:
In light of these observations, and our belief that p21^ras may be a target for perillyl alcohol activity in bcr/abl-transformed cells, it may be relevant that cellular ras activity is required for proliferating cells to pass through G1 (Dobrowski, et al., Mol. Cell Biol. 14: 5441-49, 1994).

For data set [6], the system named is isoprenylation of 21-26 kDa proteins in HT29 cells. Description: Protein isoprenylation in HT29 cells. In kind it is cell-based. The note with it: Homo sapiens, HT-29; 1 mM; read-out: decrease of isoprenylation of 21-26 kDa proteins. On the procedure: "Isoprenylation" is the addition of a multiple of the 5 carbon isoprene unit to a protein. Our experiments in isoprenylation are reported at Crowell, et al. 1991, J. Biol. Chem. 266: 17679-17685. To test whether a specific monoterpene affects isoprenylation of proteins in cells, cell extracts were incubated with a radioactive isoprene precursor and 0-5 mM of the test monoterpene and then subjected to SDS-PAGE. Because they carried a radioactive label, isoprenylated proteins were visualized by fluorography. As a control, cells were incubated without the monoterpene.
Cells were harvested after trypsin treatment, washed twice with phosphate-buffered saline, suspended in electrophoresis sample buffer (Laemmli, U.K., 1970, Nature 227: 680-685), and either analyzed immediately or stored at -20° C. Whole cell extracts were analyzed by SDS-PAGE on 16-cm×18-cm×0.75-mm gels by the method of Laemmli (supra). The acrylamide concentrations were 5% for the stacking gel and 12% for the separating gel. […] Some fluorograms were analyzed further by densitometry. Where indicated, gels were sliced, dissolved at 50° C. for 3 hours in 0.5 ml of water +0.5 ml of Solvable (Amersham), and then analyzed by scintillation spectrometry in 10 ml of Atomlight (Amersham) mixture. Protein content was measured by the method of Lowry, et al. (1951, J. Biol. Chem. 193: 265-275). […]

Data set [7] deals with p210 transformed FDC-P1 cells (F-p210.1). The data set is described as follows: Cell cycle distribution of p210-transformed FDC-P1 cells. In kind it is cell-based, murine. The note with it: for Cell cycle distribution (% > GO /G1): untreated control 53; for arrest at the G0/G1 stage: 500 μM. On the procedure: Table 3 tabulates the effect of P-OH on cell cycle distribution of nontransformed and p210 transformed FDC-P1 cells.
^1 Cells were plated at 2.5 × 10^5 per ml in duplicate well
of a 24well plate in the presence of 10% WEHI3-conditioned media as a
source of IL3 and with the indicated concentration of P--OH. After 24
hours, the cells were fixed in ethanol, permeabilized and stained with
propidium iodide, then analyzed for DNA content by flow cytometry.
^2 FDCP1 = nontransformed cells, Fp210.1 = 210transformed FDCP1 cells

As for `C=C(C)[C@@H]1CC=C(CO)CC1` [perillyl alcohol], the “animals surviving longer than control animals” value in data set [1] (3×10^5 or 3×10^6 cells, controls all died by day 26) is “about 20%”. Besides, the diet acceptance entry in data set [1] (most mice) is given as “most mice resisted the perillyl alcohol diet”. Also, the “isoprenylation of 21-26 kDa proteins” value in data set [2] (3 mM, FIG. 2) was “inhibited significantly”. Further, the inhibition of isoprenylation result in data set [2] (all cell types examined) was “inhibition of isoprenylation”. Further, the inhibition at 400 µM in data set [3] was less than 15%. The “Relative activity (inhibition of isoprenylation of 21-26 kDa proteins)” value in data set [4] is recorded as “+++++”. Moreover, the “serum concentration relative to the in vitro effective concentration range” value in data set [5] is listed as “within the effective concentration range observed in these in vitro experiments”. The inhibition at 1000 µM in data set [6] came out at 40%. Besides, the “Cell cycle distribution (% > GO /G1)” value in data set [7] (100 μM P--OH, 24 hours) is 53%; in data set [7] (500 μM P--OH, 24 hours) it was 16%. In addition, in data set [7] (500 μM P--OH, 24 hours), the apoptosis result was “Significant apoptosis”. Also, the “arrest at the G0/G1 stage” value is “almost completely arrested at the G0 /G1 stage” in data set [7] (24 hours) and “entirely in the G0 /G1 stage of the cell cycle” in data set [7] (24 hours, listed as P--OH). Besides, the morphological changes result in data set [7] (up to 500 μM) was “morphological changes suggestive of apoptotic cell death”.
